# Laboratory results from patent publication US20250280696A1, “FORMULATIONS AND USES THEREOF IN OPTOELECTRONIC FIELD” (Zhejiang Brilliant Optoelectronic Technology Co.,Ltd., priority 2022, published 2025).
# What was measured:
# Type in all cases: physicochemical
# [1] = UV stability of compounds in toluene (absorbance decay, t80); details: UV LEDs 365 nm & 255 nm, 12 cm, time until absorbance decayed to 80% of initial value
# Procedure: The UV stability of the compounds were tested as follows:
# The compound was dissolved in the toluene with a concentration of 1×10^5 mol/L. 3 mL solution was added to the cuvette with a lid and the lid was screwed on tightly, then the cuvette was placed in the ultraviolet-visible spectrophotometer to test the absorption spectrum, the absorbance of the maximum absorption peak was recorded as the initial value. The cuvette was placed at a distance of 12 cm from the UV LEDs (365 nm & 255 nm), irradiated for a period and tested its absorption spectrum, then continued to be irradiated after the test, and repeated until the absorbance decayed to 80% of its initial value, the time was recorded as t80.
# [2] = Absorption and emission spectrum in spin-coated film; details: film vs toluene solution
# Procedure: The Absorption and emission spectrums of the compounds in the film were determined as follows: • 1. The compound with a certain concentration in the toluene was prepared. • 2. The prepared toluene solution was dropped onto a clean glass substrate. • 3. Spin-coating, and then heating at the 80° C. for 1 min. • 4. The absorption spectrum of the film was measured by using an ultraviolet-visible spectrophotometer (Puxi T9s) to obtain the absorption peak wavelength. • 5. The emission spectrum of the film was measured by using a fluorescent spectroscope (Hitachi, F-4700 FL Spectrophotometer) to obtain the emission peak wavelength.
# (§1) The extinction coefficients of the compounds and their absorption and emission peaks in the solution and film are shown in Table 3.
# [3] = Solubility of compounds in toluene; details: per 100 g toluene
# Procedure: The solubility of the compounds in the toluene were determined as follows: • 1. 1000 mg toluene was placed in the transparent glass sample bottle. • 2. A certain mass of the compound was added into the toluene, and oscillated until completely dissolved. • 3. After the compound was completely dissolved, a certain mass of the compound was further added into the toluene, and oscillated. • 4. The above steps were repeated until the compound wasn't dissolved any more. • 5. The total mass of the compound added was recorded and the solubility was obtained by calculation.
# [4] = Absorption spectrum, emission spectrum and extinction coefficient in toluene solution; details: at maximum absorption peak
# Procedure: The extinction coefficients of the compounds and their absorption and emission spectrums in the solution were determined as follows: • 1. The compound with a certain amount of substance concentration in the toluene was prepared in a volumetric flask. • 2. The absorption spectrum of the solution was measured by using an ultraviolet-visible spectrophotometer (Puxi T9s) to obtain the absorption peak wavelength. • 3. The absorbance of the maximum absorption peak divided by the amount of substance concentration is the molar extinction coefficient of the compound. • 4. The emission spectrum of the solution was measured by using a fluorescent spectroscope (Hitachi, F-4700 FL Spectrophotometer) to obtain the emission peak wavelength.
# as §1
Compound,Times t80 [1] [min],Red shift of the spectrum in the film relative to the solution [2],Solubilities(/100 g toluene) [3] [g],Molar extinction coefficient of the toluene solution [4] [L/mol]
CC1CCC(C(C)C)C(Oc2ccc(-c3cc(C(C)C)ccc3N(c3cc(F)c(F)c(F)c3)c3cc(N(c4cc(F)c(F)c(F)c4)c4ccc(C(C)C)cc4-c4ccc(OC5CC(C)CCC5C(C)C)cc4)c4ccc5c(N(c6cc(F)c(F)c(F)c6)c6ccc(C(C)C)cc6-c6ccc(OC7CC(C)CCC7C(C)C)cc6)cc(N(c6cc(F)c(F)c(F)c6)c6ccc(C(C)C)cc6-c6ccc(OC7CC(C)CCC7C(C)C)cc6)c6ccc3c4c65)cc2)C1 (stereo not drawn) [Compound 23],405,very small red shift,>10,68000
CCCCCCCCc1ccc(-c2cc(OC)ccc2N(c2cc(F)c(F)c(F)c2)c2cc(N(c3cc(F)c(F)c(F)c3)c3ccc(OC)cc3-c3ccc(CCCCCCCC)cc3)c3ccc4c(N(c5cc(F)c(F)c(F)c5)c5ccc(OC)cc5-c5ccc(CCCCCCCC)cc5)cc(N(c5cc(F)c(F)c(F)c5)c5ccc(OC)cc5-c5ccc(CCCCCCCC)cc5)c5ccc2c3c54)cc1 [Compound 24],352,very small red shift,>10,70000
CCCCCCCCc1ccc(N(c2ccc(C(C)C)cc2-c2cc(F)c(F)c(F)c2)c2cc(N(c3ccc(CCCCCCCC)cc3)c3ccc(C(C)C)cc3-c3cc(F)c(F)c(F)c3)c3ccc4c(N(c5ccc(CCCCCCCC)cc5)c5ccc(C(C)C)cc5-c5cc(F)c(F)c(F)c5)cc(N(c5ccc(CCCCCCCC)cc5)c5ccc(C(C)C)cc5-c5cc(F)c(F)c(F)c5)c5ccc2c3c54)cc1 [Compound 26],486,very small red shift,>10,55000
